Results on seven compounds are retold here after patent publication US20080262049A1, “Therapeutic Agent for Hematopoietic Tumor” (KYOWA HAKKO KOGYO CO., LTD., priority 2005, published 2008).

Data set [1] relates to human acute myeloid leukemia MV-4-11 cells. The data set is described as follows: Cell growth inhibition test on acute myeloid leukemia cells (XTT), MV-4-11. It is filed as cell-based. The conditions noted are these: MV4-11, same manner as Test Example 1, read-out: growth inhibitory activity, GI50 value. As for the experimental part:
(§1) RS4;11 cells (20000 cells/well), K-562 cells (1000 cells/well), or NCI-H929 cells (15000 cells/well) were seeded in each well of 96-well plates (Nunc, catalog No. 167008), and cultured overnight. Test compounds diluted stepwise were added, and the cells were further cultured for 72 hours (final volume: 100 μL/well). Fifty μL XTT labeling mixture of Cell Proliferation Kit II (XTT) (Roche Diagnostics, catalog No. 1465015) was added to each well, and the plates were incubated at 37° C. After 4 hours, absorbance at 490 nm (reference wavelength: 655 nm) was measured with a plate reader (Molecular Device, SpectraMax 340PC^384). Growth ratios of the cells in the wells treated with the test compound was calculated based on the growth ratio of the cells in the control well treated with solvent (dimethyl sulfoxide (DMSO)) for 72 hours, which was defined as 100%.
(§2) As cancer cell lines, human acute myeloid leukemia MV-4-11 cells (ATCC No. CRL-9591) and human non-Hodgkin's lymphoma SR cells (ATCC No. CRL-2262) were used. The cells were cultured at 37° C. in a 5% carbon dioxide atmosphere by using the mediums mentioned below, respectively.
(§3) In the same manner as that of Test Example 1, the cells were seeded (8000 to 16000 cells/well, respectively) in each well of 96-well plates (Nunc, catalog No. 167008), and growth ratios of the cells treated with test compounds were calculated. Measurement of absorbance was performed at 3 to 4 hours after the addition of the XTT labeling mixture.
(Tetrazolium assays rely on reduction of a dye to a coloured formazan, in cell work by metabolically active cells.)

Data set [2] concerns human multiple myeloma NCI-H929 cells. Description: Cell growth inhibition test against hematopoietic tumor cell lines (XTT), NCI-H929. Type of data set: cell-based. To be noted: 72 hours culture with compound, read-out: growth inhibitory activity, GI50 value.
Excerpt: (§4) As hematopoietic tumor cell lines, human acute lymphoblastic leukemia RS4;11 cells (ATCC No. CRL-1873), human chronic myeloid leukemia K-562 cells (ATCC No. CCL-243), and human multiple myeloma NCI-H929 cells (ATCC No. CRL-9068) were used. For the culture of the cells, RPMI 1640 Medium (Invitrogen, catalog No. 11875-093) containing 10% fetal bovine serum (Invitrogen, catalog No. 10099-141), 10 mmol/L 4-(2-hydroxyethyl)-1-piperazinethanesulfonic acid (HEPES) buffer (ICN Biomedicals, catalog No. 1688449), 1 mmol/L sodium pyruvate (Invitrogen, catalog No. 11360-070), 4.5 g/L glucose (Sigma-Aldrich, catalog No. G8769), 100 units/mL penicillin (Invitrogen, catalog No. 15140-122) and 100 μg/mL streptomycin (Invitrogen, catalog No. 15140-122) was used. The cells were cultured at 37° C. in a 5% carbon dioxide atmosphere.
as §1

Data set [3] deals with human non-Hodgkin's lymphoma SR cells. Description: Cell growth inhibition test on non-Hodgkin's lymphoma cells (XTT), SR. It is filed as cell-based. The conditions noted are these: same manner as Test Example 1, read-out: growth inhibitory activity, GI50 value. The protocol: as §1, §2, §3
Data set [4] has as its system human acute lymphoblastic leukemia RS4;11 cells. The data set is described as follows: Cell growth inhibition test against hematopoietic tumor cell lines (XTT), RS4;11. It is filed as cell-based. The conditions noted are these: 72 hours culture with compound, read-out: growth inhibitory activity, GI50 value.
Excerpt: as §4, §1

Data set [5] has as its target T1, recombinant human Eg5 motor domain protein (Homo sapiens, UniProt P52732).
T1 construct: A plasmid expressing the motor domain of human Eg5 was constructed; made in house; host or cells: Escherichia coli BL21 (DE3)
T1 sequence (P52732 18-359 limits assumed): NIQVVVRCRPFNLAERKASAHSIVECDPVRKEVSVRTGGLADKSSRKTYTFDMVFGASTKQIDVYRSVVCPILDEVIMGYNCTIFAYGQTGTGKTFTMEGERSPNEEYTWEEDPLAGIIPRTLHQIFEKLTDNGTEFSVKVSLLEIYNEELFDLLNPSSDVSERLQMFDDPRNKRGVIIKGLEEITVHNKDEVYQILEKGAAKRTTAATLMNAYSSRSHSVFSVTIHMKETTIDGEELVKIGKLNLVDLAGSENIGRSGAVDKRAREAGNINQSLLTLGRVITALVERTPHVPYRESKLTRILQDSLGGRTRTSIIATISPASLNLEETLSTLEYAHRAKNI
Description: Eg5 enzyme inhibition test (ATPase activity). Type of data set: biochemical. The conditions noted are these: for inhibition of the ATPase activity of Eg5 (in words): 30° C., 30 minutes, absorbance at 360 nm; for Eg5 inhibitory activity compared with the corresponding racemic mixture (in words): versus Compounds 3, 4, 6, 7, 20, 14, 9, 8, the respectively corresponding racemic mixtures. As for the experimental part: A recombinant human Eg5 motor domain protein was prepared by referring to the literature [Biochemistry, Vol. 35, p. […] A plasmid expressing the motor domain of human Eg5 was constructed, and transformed into Eseherichia coli BL21 (DE3). The transformant was cultured at 25° C., and when the OD600 reached 0.74, isopropyl-β-D-thiogalactoside was added at a final concentration of 0.5 mmol/L. The transformant was further cultured for 4 hours, and then the culture medium was centrifuged to collect the cells. The cells were suspended in a buffer and ultrasonicated, and then the sonicated solution was centrifuged to recover the supernatant. The supernatant was purified by cation exchange column chromatography to obtain a partially purified sample. Furthermore, the partially purified sample was purified by gel filtration column chromatography to obtain a finally purified sample.
Measurement of the ATPase activity of Eg5 was carried out by referring to the literatures [EMBO Journal, Vol. 13, p. […] Solution A was dispensed into each well of a 96-well plate as 45 μL portions. Solution B was used to serially dilute a test compound. The diluted test compound solutions in a volume of 30 μL were mixed with Solution A added beforehand in each well of the 96-well plate to start the enzymatic reaction. The enzymatic reaction was performed at 30° C. for 30 minutes. […] The relative activity was calculated to calculate IC50 value.

For data set [6], the system named is human chronic myeloid leukemia K-562 cells. The data set is described as follows: Cell growth inhibition test against hematopoietic tumor cell lines (XTT), K-562. It is filed as cell-based. The conditions noted are these: K562, 72 hours culture with compound, read-out: growth inhibitory activity, GI50 value.
Excerpt: as §4, §1

With `CC(C)(C)C(=O)N1N=C(N2CCCC2=O)SC1(CCNS(C)(=O)=O)c1ccccc1` (single isomer, unassigned; (-)) [Compound c, (−)-N-{2-[3-(2,2-Dimethylpropionyl)-5-(2-oxopyrrolidin-1-yl)-2-phenyl-2,3-dihydro-1,3,4-thiadiazol-2-yl]ethyl}methanesulfonamide], the melting point was in the range of 107 to 110 °C.

Regarding `CCC(=O)N1N=C(N2CCCC2=O)SC1(CCNS(C)(=O)=O)c1ccccc1` (single isomer, unassigned; (-)) [Compound e, (−)-N-{2-[5-(2-Oxopyrrolidin-1-yl)-2-phenyl-3-propionyl-2,3-dihydro-1,3,4-thiadiazol-2-yl]ethyl}methanesulfonamide], the melting point fell in the range of 188 to 191 °C. In addition, the GI50 in data set [1] was less than 10 µM. Also, the GI50 in data set [2] was less than 10 µM. Further, the GI50 in data set [3] was less than 10 µM. For the same compound, the GI50 in data set [4] was less than 10 µM. For the same compound, in data set [5], the “inhibition of the ATPase activity of Eg5 (in words)” value is on record as “inhibited the ATPase activity of Eg5 in a concentration-dependent manner” and the “Eg5 inhibitory activity compared with the corresponding racemic mixture (in words)” value was “stronger inhibitory activities”. Besides, in data set [6], the GI50 is less than 10 µM.

Take `CC(=O)N1N=C(NC(=O)C(C)(C)C)SC1(CCNS(C)(=O)=O)c1ccccc1` (single isomer, unassigned; (-)) [Compound f, (−)-N-[4-Acetyl-5-(2-methanesulfonylaminoethyl)-5-phenyl-4,5-dihydro-1,3,4-thiadiazol-2-yl]-2,2-dimethylpropanamide]: the melting point was 187 to 190 °C.

In turn, `CC(=O)N1N=C(N2CCCCC2=O)SC1(CCNS(C)(=O)=O)c1ccccc1` (single isomer, unassigned; (-)) [Compound h, (−)-N-{2-[3-Acetyl-5-(2-oxopiperidino)-2-phenyl-2,3-dihydro-1,3,4-thiadiazol-2-yl]ethyl}methanesulfonamide] showed a melting point of 169 to 171 °C. Further, the GI50 in data set [1] is less than 10 µM. Moreover, the GI50 in data set [2] is less than 10 µM. Moreover, the GI50 in data set [3] is less than 10 µM. For the same compound, the GI50 in data set [4] is less than 10 µM. Further, in data set [5], the “inhibition of the ATPase activity of Eg5 (in words)” value is reported as “inhibited the ATPase activity of Eg5 in a concentration-dependent manner” and the “Eg5 inhibitory activity compared with the corresponding racemic mixture (in words)” value was “stronger inhibitory activities”. Besides, the GI50 in data set [6] is less than 10 µM.

Compound `CN(C)CCS(=O)(=O)NCC1(c2ccccc2)SC(NC(=O)C(C)(C)C)=NN1C(=O)C(C)(C)C` (single isomer, unassigned; (-)) [Compound m, (−)-N-[5-(2-Dimethylaminoethanesulfonylaminomethyl)-4-(2,2-dimethylpropionyl)-5-phenyl-4,5-dihydro-1,3,4-thiadiazol-2-yl]-2,2-dimethylpropanamide] had a melting point of 101 to 104 °C. Also, the GI50 in data set [1] is less than 10 µM. Further, the GI50 in data set [2] was less than 10 µM. In data set [3], the GI50 is less than 10 µM. For the same compound, in data set [4], the GI50 was less than 10 µM. The GI50 in data set [6] is less than 10 µM.

In turn, `CN(C)CCCS(=O)(=O)NCC1(c2ccccc2)SC(NC(=O)C(C)(C)C)=NN1C(=O)C(C)(C)C` (single isomer, unassigned; (-)) [Compound n, (−)-N-[5-(3-Dimethylaminopropanesulfonylaminomethyl)-4-(2,2-dimethylpropionyl)-5-phenyl-4,5-dihydro-1,3,4-thiadiazol-2-yl]-2,2-dimethylpropanamide] came in with a melting point of 92 to 95 °C. Further, the 50% growth inhibitory concentration (GI50) in data set [1] is less than 10 µM. The GI50 in data set [2] is less than 10 µM. Further, the GI50 in data set [3] is less than 10 µM. Moreover, the GI50 in data set [4] was less than 10 µM. Besides, the GI50 in data set [6] is less than 10 µM.

Compound `CC(=O)N1N=C(N2CCCC2=O)SC1(CCNS(C)(=O)=O)c1ccccc1` (stereo not shown) [Compound g, N-{2-[3-Acetyl-5-(2-oxopyrrolidin-1-yl)-2-phenyl-2,3-dihydro-1,3,4-thiadiazol-2-yl]ethyl}methanesulfonamide] displayed a melting point of 137 to 140 °C.

One may read the melting point as the temperature of the solid-liquid transition. Broadly, the GI50 is the concentration that inhibits growth by half.
